19 compounds from ChEMBL document CHEMBL5149986, “Spliceostatins and Derivatives: Chemical Syntheses and Biological Properties of Potent Splicing Inhibitors” (J Nat Prod, 2021) can be followed below.

As a reminder, the IC50 is the concentration needed to halve the response being measured. For orientation: GI50 means the concentration at which growth is held to half of that of the control.

Series [1] is described as follows: Inhibition of pre-mRNA splicing in human HeLa nuclear extract in presence of ATP. Type of series: cell-free.
The next series has as its system MCF7. The series is described as follows: Cytotoxicity against human MCF7 cells incubated for 7 to 10 days by MTS assay. Type of series: functional. The settings on record: time 7-10 day. (Formazan colour is commonly taken as a measure of viable cells.)
The subject of the next series is HCT-116. The series is described as follows: Cytotoxicity against human HCT-116 cells assessed as inhibition in cell growth. Type of series: functional, cell-based.
A further series has as its system L1210. The series is described as follows: Cytotoxicity against mouse L1210 cells assessed as inhibition in cell growth. Type of series: functional, cell-based.
The test system of the next series is HCT-116/VM46. Description: Cytotoxicity against human HCT116/VM46 cells assessed as inhibition in cell growth. Type of series: functional, cell-based.
Another series concerns MES-SA. The series is described as follows: Cytotoxicity against human MES-SA cells assessed as inhibition in cell growth. Type of series: functional, cell-based.
The subject of a further series is MES-SA/Dx5. The series is described as follows: Cytotoxicity against human MES-SA/Dx5 cells assessed as inhibition in cell growth. Type of series: functional, cell-based.
Series [2] in a line: Cytotoxicity against HEK293T cells assessed as inhibition in cell growth. Type of series: toxicity, cell-based, HEK-293T. The following applies: human.
Series [3] can be described thus: Cytotoxicity against human Jurkat-TAg cells assessed as cell growth inhibition measured after 48 hrs. Type of series: functional, cell-based.
The next series has as its system HeLa. The series is described as follows: Potency index, ratio of test compound IC50 to Spliceostatin A IC50 for inhibition of pre-mRNA splicing in human HeLa nuclear extract in presence of ATP.

Molecules are shown by their SMILES. Some results are limits rather than exact numbers.

With `CO[C@]1(C)C[C@@]2(CO2)[C@H](O)[C@@H](/C=C/C(C)=C/C[C@@H]2O[C@H](C)[C@@H](NC(=O)/C=C\[C@H](C)OC(C)=O)C[C@@H]2C)O1`, in [1], the IC50 turned out to be 1000 nM.

In turn, `CC(=O)O[C@@H](C)/C=C\C(=O)N[C@@H]1C[C@H](C)[C@H](C/C=C(C)/C=C/[C@H]2OC(C)(C)C[C@@]3(CO3)[C@@H]2O)O[C@@H]1C` gave a GI50 in the series with MCF7 of 0.0102 nM. The concentration for half-maximal inhibition (IC50) in the series with HCT-116 amounted to 0.56 nM; in the series with L1210 it was 0.44 nM; in the series on HCT-116/VM46, 0.51 nM.

Consider `CC(=O)O[C@@H](C)/C=C\C(=O)N[C@H]1C[C@H](C)[C@H](C/C=C(C)/C=C/[C@H]2O[C@](C)(O)C[C@@]3(CO3)[C@@H]2O)O[C@@H]1C`, for which the IC50 in [1] came to 1000 nM.

`COC(=O)C[C@@H]1C[C@@]2(CO2)[C@H](O)[C@@H](/C=C/C(C)=C/C[C@@H]2O[C@H](C)[C@H](NC(=O)/C=C\[C@H](C)OC(C)=O)C[C@@H]2C)O1`: the half-inhibitory concentration (IC50) in the series with MES-SA came to 0.32 nM; with MES-SA/Dx5, 3.6 nM; in [1], 400 nM; in [2], 0.36 nM.

Turning to `CC(=O)O[C@@H](C)/C=C\C(=O)N[C@@H]1C[C@H](C)[C@H](C/C=C(C)/C=C/[C@H]2O[C@](C)(O)CC3(CC3)[C@@H]2O)O[C@@H]1C`, in [3], the IC50 was over 4000 nM.

For `CO[C@]1(C)C[C@@]2(CO2)[C@H](O)[C@@H](/C=C/C(C)=C/C[C@@H]2O[C@H](C)[C@H](NC(=O)/C=C\[C@H](C)OC(C)=O)C[C@@H]2C)O1`, in [1], the IC50 turned out to be 10 nM.

As to `CC(=O)O[C@@H](C)/C=C\C(=O)N[C@H]1C[C@H](C)[C@H](C/C=C(C)/C=C/[C@H]2O[C@](C)(O)C[C@]3(CO3)[C@H]2O)O[C@@H]1C`, in [1], the IC50 turned out to be 20000 nM.

`CC(=O)O[C@@H](C)/C=C\C(=O)N[C@@H]1C[C@H](C)[C@H](C/C=C(C)/C=C/[C@H]2O[C@@H](C)C[C@@]3(CO3)[C@@H]2O)O[C@@H]1C`: the 50% inhibitory concentration (IC50) in [3] was 1.6 nM.

As to `CO[C@]1(C)C[C@]2(CO2)[C@@H](O)[C@@H](/C=C/C(C)=C/C[C@@H]2O[C@H](C)[C@H](NC(=O)/C=C\[C@H](C)OC(C)=O)C[C@@H]2C)O1`, the concentration for half-maximal inhibition (IC50) in [1] was determined as 1500 nM.

For the compound `CC(=O)O[C@@H](C)/C=C\C(=O)N[C@@H]1C[C@H](C)[C@H](C/C=C(C)/C=C/[C@H]2O[C@](C)(O)C[C@]3(CO3)[C@H]2O)O[C@@H]1C`, in [1], the half-inhibitory concentration (IC50) came to 35000 nM.

For the compound `CC(/C=C/[C@H]1OC(C)(C)C[C@@]2(CO2)[C@@H]1O)=C\C[C@@H]1O[C@H](C)[C@H](NC(=O)/C=C\[C@H](C)OC(=O)N2CCCCC2)C[C@@H]1C`, the figures for the IC50 in the series with HCT-116, with L1210 and with HCT-116/VM46 were 0.68 nM, 0.6 nM and 0.59 nM, respectively.

Consider `CC(/C=C/[C@H]1OC(C)(C)C[C@@]2(CO2)[C@@H]1O)=C\C[C@@H]1O[C@H](C)[C@H](NC(=O)/C=C\[C@H](C)O)C[C@@H]1C`, for which the IC50 in the series on HCT-116 came out at 9.7 nM; with L1210, 0.54 nM; in the series with HCT-116/VM46, 7.4 nM.

Regarding `CC(=O)O[C@@H](C)/C=C\C(=O)N[C@@H]1C[C@H](C)[C@H](C/C=C(C)/C=C/[C@H]2OC3(CC3)C[C@@]3(CO3)[C@@H]2O)O[C@@H]1C`, the IC50 in [1] was determined as 20 nM. In addition, the Ratio IC50 with HeLa was found to be 2.

Compound `CC(=O)O[C@@H](C)/C=C\C(=O)N[C@@H]1C[C@H](C)[C@H](C/C=C(C)/C=C/[C@H]2O[C@](C)(O)C[C@@]3(CO3)[C@@H]2O)O[C@@H]1C` registered a concentration for 50% growth inhibition (GI50) in the series on MCF7 of 1.1 nM. For the same compound, the half-maximal inhibitory concentration (IC50) is 50 nM in series [1] and 2 nM in series [3].

As for `CC(/C=C/[C@H]1OC(C)(C)C[C@@]2(CO2)[C@@H]1O)=C\C[C@@H]1O[C@H](C)[C@H](NC(=O)/C=C\[C@H](C)OC(=O)N2CCSCC2)C[C@@H]1C`, the half-maximal inhibitory concentration (IC50) with HCT-116 came to 0.48 nM; in the series on L1210, 0.51 nM; in the series on HCT-116/VM46, 0.52 nM.

On to `CC(/C=C/[C@H]1OC(C)(C)C[C@@]2(CO2)[C@@H]1O)=C\C[C@@H]1O[C@H](C)[C@H](NC(=O)/C=C\[C@H](C)OC(=O)N2CCOCC2)C[C@@H]1C`, for which the IC50 is 0.49 nM in the series with HCT-116, 7.8 nM in the series with L1210 and 0.55 nM in the series on HCT-116/VM46.

Turning to `CC(=O)N[C@@H]1C[C@H](C)[C@H](C/C=C(C)/C=C/[C@H]2O[C@](C)(O)C[C@@]3(CO3)[C@@H]2O)O[C@@H]1C`, the IC50 in series [3] is 1700 nM.

In the case of `CC(/C=C/[C@H]1O[C@H](C)C[C@@]2(CO2)[C@@H]1O)=C\C[C@@H]1O[C@H](C)[C@H](NC(=O)/C=C\[C@H](C)NC(=O)C(C)C)C[C@@H]1C`, the IC50 amounted to 0.23 nM in the series with MES-SA, 4.91 nM with MES-SA/Dx5 and 0.015 nM in series [2].

On to `C=C1C[C@@H](CC(=O)O)O[C@H](/C=C/C(C)=C/C[C@@H]2O[C@H](C)[C@H](NC(=O)/C=C\[C@H](C)OC(C)=O)C[C@@H]2C)[C@H]1O`, for which the 50% inhibitory concentration (IC50) (in the series on MES-SA; in the series on MES-SA/Dx5; in [2]) was over 1000 nM each time.
